Source: article PMC6117704, “Novel Natural Angiotensin Converting Enzyme (ACE)-Inhibitory Peptides Derived from Sea Cucumber-Modified Hydrolysates by Adding Exogenous Proline and a Study of Their Structure–Activity Relationship” (Marine Drugs, 2018)
Where two headings read alike, the source gives them in different places. Each block holds one compound with its values, some of them ahead of it. Peptide text beside a SMILES is read from it.

Tests used:
rabbit-lung ACE = target: T1, rabbit-lung ACE (Oryctolagus cuniculus, UniProt P12822); assay: ACE-inhibitory activity of synthetic peptides; assay type: biochemical; conditions: synthesized peptides; HHL substrate (8.3 mM Hip-His-Leu in 50 mM sodium borate, 0.5 M NaCl, pH 8.3), ACE 25 mU/mL, pre-incubation 37 °C 10 min, 60 min, UV 228 nm; mean ± SD (n = 3)
T1 construct: rabbit-lung ACE and Sephadex G-15 were purchased from Sigma Chemical Ltd; purchased Sigma Chemical Ltd (St. Louis, MO, USA); host or cells: rabbit lung tissue
T1 sequence (P12822 34-1310): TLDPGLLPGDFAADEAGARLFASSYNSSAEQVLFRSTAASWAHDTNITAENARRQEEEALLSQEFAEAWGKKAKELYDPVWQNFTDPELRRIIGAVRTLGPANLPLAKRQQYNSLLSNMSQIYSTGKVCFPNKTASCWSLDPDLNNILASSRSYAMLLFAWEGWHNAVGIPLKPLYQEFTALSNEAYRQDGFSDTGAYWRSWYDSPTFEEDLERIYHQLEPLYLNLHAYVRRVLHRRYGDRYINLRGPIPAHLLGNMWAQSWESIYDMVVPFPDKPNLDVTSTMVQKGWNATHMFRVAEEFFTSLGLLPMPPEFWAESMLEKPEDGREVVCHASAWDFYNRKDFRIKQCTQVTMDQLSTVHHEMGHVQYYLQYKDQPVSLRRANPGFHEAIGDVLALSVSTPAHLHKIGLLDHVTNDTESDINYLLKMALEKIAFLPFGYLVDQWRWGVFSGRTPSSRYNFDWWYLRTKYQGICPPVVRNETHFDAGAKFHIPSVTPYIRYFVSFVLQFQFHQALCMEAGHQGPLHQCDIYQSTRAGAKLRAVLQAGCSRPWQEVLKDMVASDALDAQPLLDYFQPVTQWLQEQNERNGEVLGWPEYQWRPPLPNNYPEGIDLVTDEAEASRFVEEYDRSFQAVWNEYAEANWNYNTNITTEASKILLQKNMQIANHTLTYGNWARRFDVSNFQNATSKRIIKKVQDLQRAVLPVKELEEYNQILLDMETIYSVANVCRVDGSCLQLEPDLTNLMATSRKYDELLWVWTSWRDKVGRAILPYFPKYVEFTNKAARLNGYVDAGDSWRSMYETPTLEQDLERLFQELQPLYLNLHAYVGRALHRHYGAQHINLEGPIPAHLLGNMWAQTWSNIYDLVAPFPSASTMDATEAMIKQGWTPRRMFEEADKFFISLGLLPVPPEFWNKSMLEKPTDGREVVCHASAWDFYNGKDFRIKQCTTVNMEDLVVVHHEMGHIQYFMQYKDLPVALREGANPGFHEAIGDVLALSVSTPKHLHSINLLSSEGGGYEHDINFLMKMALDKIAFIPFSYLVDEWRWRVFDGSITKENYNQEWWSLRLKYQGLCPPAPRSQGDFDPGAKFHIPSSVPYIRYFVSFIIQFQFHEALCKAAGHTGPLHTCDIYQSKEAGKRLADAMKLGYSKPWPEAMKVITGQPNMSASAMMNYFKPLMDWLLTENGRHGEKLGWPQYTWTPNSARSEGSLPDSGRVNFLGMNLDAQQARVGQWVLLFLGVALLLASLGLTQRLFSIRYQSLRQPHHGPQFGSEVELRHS
Method: Sea cucumber (Acaudina molpadioidea) was purchased from a local market (Qingdao, China) and its water content was determined to be 12.65% per 20 g on average. Hippuryl histidyl leucine (HHL), rabbit-lung ACE and Sephadex G-15 were purchased from Sigma Chemical Ltd (St. Louis, MO, USA). Papain (from papaya) and trypsin (from bovine sources) were purchased from Nanning Pangbo Biological Engineering Ltd (Nanning, China). O-Pthaldialdehyde (OPA) was purchased from Beijing Soularbio Technology Ltd. (Beijing, China). Proline (PubChem CID 145742), valine (PubChem CID 6287), tyrosine (PubChem CID 6057), tryptophan (PubChem CID 6305), leucine (PubChem CID 6106) and phenylalanine (PubChem CID 6140) were purchased from Sinopharm Chemical Reagent Ltd. (Shanghai, China). All other chemicals were obtained from local commercial sources and were of the highest purity available.
The ACE-inhibitory activity of the hydrolysates was measured according to a previously reported protocol with slight modifications. Briefly, a sample solution with 40 μL of ACE solution (25 mU/mL) was pre-incubated at 37 °C for 10 min. After this, the mixture was incubated with 50 μL of the substrate (8.3 mM Hip-His-Leu in 50 mM sodium borate buffer containing 0.5 M NaCl at pH of 8.3) for 60 min at the same temperature. The reaction was terminated by the addition of 1.0 M HCl (200 μL). The absorbance of hippuric acid in the incubated solution was determined at 228 nm using a UV-spectrophotometer (UV-2550, Shimadzu, Kyoto, Japan). The IC50 value was defined as the concentration of inhibitor that was needed to inhibit 50% of the ACE activity.
The molecular weights of peptides in the filtered hydrolysates were analyzed by MALDI-TOF (TOF 4800, Micromass Company, Manchester, UK). The amino acid sequences were determined in the positive ion mode by de novo sequencing. Subsequently, the peptides were synthesized using the solid phase method and purified by HPLC (ChinaPeptides Co. Ltd., Shanghai, China).

ACE = system: ACE; design: method as in 8 sources, ref [4]; PMID 29426427; doi:10.1016/j.foodchem.2018.01.047; 4. Sangsawad P. Roytrakul S. Choowongkomon K. Kitts D.D. Chen X.M. Meng G. Lichan E. Yongsawatdigul J. Transepithelial transport across Caco-2 cell monolayers of angiotensin converting enzyme (ACE) in ||| ref [20] = [20]; PMID 29426427; doi:10.1016/j.jff.2016.12.005; 20. Sangsawad P. Roytrakul S. Yongsawatdigul J. Angiotensin converting enzyme (ACE) inhibitory peptides derived from the simulated in vitro gastrointestinal digestion of cooked chicken breast J. Funct ||| ref [21] = [21]; doi:10.1016/j.idairyj.2006.05.011; 21. Otte J. Shalaby S.M. Zakora M. Pripp A.H. El-Shabrawy S.A. Angiotensin-converting enzyme inhibitory activity of milk protein hydrolysates: Effect of substrate, enzyme and time of hydrolysis Int. D ||| ref [11] = [11]; doi:10.1080/10942912.2011.642048; 11. Sun H. Li T.J. Zhao X.H. ACE inhibition and enzymatic resistance in vitro of a casein hydrolysate subjected to plastein reaction in the presence of extrinsic proline and ethanol- or methanol-eater ||| ref [26] = [26]; PMID 24054237; doi:10.1016/j.foodchem.2013.07.067; 26. Ngo D.H. Ryu B. Kim S.K. Active peptides from skate ( Okamejei kenojei ) skin gelatin diminish angiotensin-I converting enzyme activity and intracellular free radical-mediated oxidation Food Chem. ||| ...; conditions: cited from earlier work

IC50 (rabbit-lung ACE): 17.4 ± 0.89 µM
Compound: CC(C)C[C@H](NC(=O)[C@@H](N)CC(N)=O)C(=O)NCC(=O)O [NLG] (H-Asn-Leu-Gly-OH)

IC50 (rabbit-lung ACE): 12.7 ± 1.5 µM
Compound: CC(C)[C@H](NC(=O)[C@@H](N)CC(N)=O)C(=O)N[C@@H](C)C(=O)O [NVA] (H-Asn-Val-Ala-OH)

IC50 (rabbit-lung ACE): 13.2 ± 0.39 µM
Compound: CC(C)C[C@H](NC(=O)[C@H](CC(N)=O)NC(=O)[C@@H]1CCCN1)C(=O)NCC(=O)O [PNLG] (H-PNLG-OH)

IC50 (rabbit-lung ACE): 8.18 ± 0.24 µM
Compound: CC(C)[C@H](NC(=O)[C@H](CC(N)=O)NC(=O)[C@@H]1CCCN1)C(=O)N[C@@H](C)C(=O)O [PNVA] (H-PNVA-OH)

Compound: AGPPGSDGQPGAK
IC50 (ACE; ref [38]): 420 ± 20 µM

Compound: KPLL
ACE-inhibitory activity (in words) (ACE; ref [20]): high ACE-inhibitory activity

Compound: LGPLGHQ
ACE-inhibitory activity (in words) (ACE; ref [26]): high ACE-inhibitory activity

Compound: MVGSAPGVL
ACE-inhibitory activity (in words) (ACE; ref [26]): high ACE-inhibitory activity

Compound: VYPFPGPIPNSLPQNIPP
ACE-inhibitory activity (in words) (ACE; ref [21]): high ACE-inhibitory activity
